Test results taken from patent publication US9458153B2, “Dihydroquinolizinones for the treatment and prophylaxis of hepatitis B virus infection” (Hoffmann-La Roche Inc., priority 2014, dated 2016).
pIC50: −log10 of the molar value. Counter-ions that a name gives are not always drawn.

Tested on: HBsAg
Test: HBsAg assay (chemiluminescence immunoassay of secreted HBsAg in HepG2.2.15 culture supernatant)
Type: cell-based, HBV
Settings: HepG2.2.15 cells, CLIA kit
Outline: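 IC50 came from dose-response curves of HBsAg in culture supernatant, measured semi-quantitatively by chemiluminescent immunoassay. The HBV-producing HepG2.2.15 line was dosed in duplicate with a three-fold compound dilution series, with DMSO at 1% final and DMSO alone as the no-drug control.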

[1] = Hepatitis B virus, HepG2.2.15, HBsAg secretion reduced by 50% vs no drug control
[2] = HBsAg secretion reduced by 50% vs no drug control

Structure (SMILES)	pIC50 [1]	pIC50 [2]	further results
CCC1Cc2cc(OCCNS(C)(=O)=O)c(OC)cc2-c2cc(=O)c(C(=O)O)cn21 (stereo not drawn) [Example 56, 6-ethyl-9-[2-(methanesulfonamido)ethoxy]-10-methoxy-2-oxo-6,7-dihydrobenzo[a]quinolizine-3-carboxylic acid]	5.48	–	–
COCCCOc1cc2c(cc1Cl)-c1cc(=O)c(C(=O)O)cn1C(C1(C)CC1)C2 (single isomer, unassigned; (-)) [Example 207, (−)-10-chloro-9-(3-methoxypropoxy)-6-(1-methylcyclopropyl)-2-oxo-6,7-dihydrobenzo[a]quinolizine-3-carboxylic acid]	–	7.40	–
CCC1Cc2cc(OCCCOC)c(OC)cc2-c2cc(=O)c(C(=O)O)cn21 (single isomer, unassigned; (+)) [Example 40, (+)-6-ethyl-10-methoxy-9-(3-methoxypropoxy)-2-oxo-6,7-dihydrobenzo[a]quinolizine-3-carboxylic acid]	–	7.89	–
CCOc1cc2c(cc1Cl)-c1cc(=O)c(C(=O)O)cn1C(CC)C2 (single isomer, unassigned; (+)) [Example 118, (+)-10-chloro-9-ethoxy-6-ethyl-2-oxo-6,7-dihydrobenzo[a]quinolizine-3-carboxylic acid]	–	8.40	–
COc1cc2c(cc1OCC(F)(F)F)CC(C(C)C)n1cc(C(=O)O)c(=O)cc1-2 (single isomer, unassigned; (-)) [Example 128, (−)-6-isopropyl-10-methoxy-2-oxo-9-(2,2,2-trifluoroethoxy)-6,7-dihydrobenzo[a]quinolizine-3-carboxylic acid]	–	6.17	–
COc1cc2c(cc1OCCCN1CCOCC1)CC(C(C)(C)C)n1cc(C(=O)O)c(=O)cc1-2 (single isomer, unassigned; (-)) [Example 194, (−)-6-tert-butyl-10-methoxy-9-(3-morpholinopropoxy)-2-oxo-6,7-dihydrobenzo[a]quinolizine-3-carboxylic acid]	–	6.57	–
COc1cc2c(cc1OCCCCCCNC(=O)OC(C)(C)C)CC(C(C)(C)C)n1cc(C(=O)O)c(=O)cc1-2 (stereo not drawn) [Example 161, 9-[6-(tert-butoxycarbonylamino)hexoxy]-6-tert-butyl-10-methoxy-2-oxo-6,7-dihydrobenzo[a]quinolizine-3-carboxylic acid]	–	8.05	–
CCC1Cc2cc(OCCN3CCCC3)c(OC)cc2-c2cc(=O)c(C(=O)O)cn21 (stereo not drawn) [Example 51, 6-ethyl-10-methoxy-2-oxo-9-(2-pyrrolidin-1-ylethoxy)-6,7-dihydrobenzo[a]quinolizine-3-carboxylic acid]	5.41	–	–
CCC1Cc2cc(OCCCO)c(OC)cc2-c2cc(=O)c(C(=O)O)cn21 (stereo not drawn) [Example 25, 6-ethyl-9-(3-hydroxypropoxy)-10-methoxy-2-oxo-6,7-dihydrobenzo[a]quinolizine-3-carboxylic acid]	6.81	–	–
CCC1Cc2cc(OCC(C)(C)CO)c(OC)cc2-c2cc(=O)c(C(=O)O)cn21 (single isomer, unassigned; (-)) [Example 24, (−)-6-ethyl-9-(3-hydroxy-2,2-dimethyl-propoxy)-10-methoxy-2-oxo-6,7-dihydrobenzo[a]quinolizine-3-carboxylic acid]	–	5.87	–
COc1cc2c(cc1OCCCN1CCCC1)CC(C(C)(C)C)n1cc(C(=O)O)c(=O)cc1-2 (stereo not drawn) [Example 196, 6-tert-butyl-10-methoxy-2-oxo-9-(3-pyrrolidin-1-ylpropoxy)-6,7-dihydrobenzo[a]quinolizine-3-carboxylic acid]	6.92	–	–
CCOc1cc2c(cc1OC)-c1cc(=O)c(C(=O)O)cn1C(C)C2 (stereo not drawn) [Example 4, 9-ethoxy-10-methoxy-6-methyl-2-oxo-6,7-dihydrobenzo[a]quinolizine-3-carboxylic acid]	7.01	–	–
CCC1Cc2cc(OCCO)c(OC)cc2-c2cc(=O)c(C(=O)O)cn21 (stereo not drawn) [Example 21, 6-ethyl-9-(2-hydroxyethoxy)-10-methoxy-2-oxo-6,7-dihydrobenzo[a]quinolizine-3-carboxylic acid]	6.35	–	–
COc1cc2c(cc1OC)-c1cc(=O)c(C(=O)O)cn1C(CC(C)C)C2 (single isomer, unassigned; (-)) [Example 103, (−)-6-isobutyl-9,10-dimethoxy-2-oxo-6,7-dihydrobenzo[a]quinolizine-3-carboxylic acid]	–	5.47	–
COc1cc2c(cc1OCCC(F)F)CC(C(C)(C)C)n1cc(C(=O)O)c(=O)cc1-2 (stereo not drawn) [Example 180, 6-tert-butyl-9-(3,3-difluoropropoxy)-10-methoxy-2-oxo-6,7-dihydrobenzo[a]quinolizine-3-carboxylic acid]	8.40	–	–
COc1cc2c(cc1OCCCN1CCOCC1)CC(C(C)(C)C)n1cc(C(=O)O)c(=O)cc1-2 (single isomer, unassigned; (+)) [Example 193, (+)-6-tert-butyl-10-methoxy-9-(3-morpholinopropoxy)-2-oxo-6,7-dihydrobenzo[a]quinolizine-3-carboxylic acid]	–	8.52	–
CCOc1cc2c(cc1OC)-c1cc(=O)c(C(=O)O)cn1C(CC)C2 (stereo not drawn) [Example 36, 9-ethoxy-6-ethyl-10-methoxy-2-oxo-6,7-dihydrobenzo[a]quinolizine-3-carboxylic acid]	–	7.28	–

Structure (SMILES)	pIC50 [1]	pIC50 [2]	further results
CCCc1cc2c(cc1OC)-c1cc(=O)c(C(=O)O)cn1C(CC)C2 (stereo not drawn) [Example 81, 6-ethyl-10-methoxy-2-oxo-9-propyl-6,7-dihydrobenzo[a]quinolizine-3-carboxylic acid]	6.48	–	–
COc1cc2c(cc1OC)-c1cc(=O)c(C(=O)O)cn1C(C)C2 (single isomer, unassigned; (+)) [Example 67, (+)-9,10-dimethoxy-6-methyl-2-oxo-6,7-dihydrobenzo[a]quinolizine-3-carboxylic acid]	–	6.42	–
COCCCOc1cc2c(cc1F)-c1cc(=O)c(C(=O)O)cn1C(C(C)C)C2 (stereo not drawn) [Example 140, 10-fluoro-6-isopropyl-9-(3-methoxypropoxy)-2-oxo-6,7-dihydrobenzo[a]quinolizine-3-carboxylic acid]	7.51	–	–
COc1cc2c(cc1OC)-c1cc(=O)c(C(=O)O)cn1C(C(C)C)C2 (single isomer, unassigned; (-)) [Example 100, (−)-6-isopropyl-9,10-dimethoxy-2-oxo-6,7-dihydrobenzo[a]quinolizine-3-carboxylic acid]	–	5.27	–
CCOc1cc2c(cc1OCC)-c1cc(=O)c(C(=O)O)cn1C(CC)C2 (single isomer, unassigned; (-)) [Example 7, (−)-9,10-diethoxy-6-ethyl-2-oxo-6,7-dihydrobenzo[a]quinolizine-3-carboxylic acid]	–	5.72	–
CCC1Cc2cc(OCC3CCOCC3)c(OC)cc2-c2cc(=O)c(C(=O)O)cn21 (stereo not drawn) [Example 48, 6-ethyl-10-methoxy-2-oxo-9-(tetrahydropyran-4-ylmethoxy)-6,7-dihydrobenzo[a]quinolizine-3-carboxylic acid]	–	7.62	–
COCCCOc1cc2c(cc1Cl)-c1cc(=O)c(C(=O)O)cn1C(C(C)(C)C)C2 (single isomer, unassigned; (-)) [Example 204, (−)-6-tert-butyl-10-chloro-9-(3-methoxypropoxy)-2-oxo-6,7-dihydrobenzo[a]quinolizine-3-carboxylic acid]	–	6.85	–
CCC1Cc2cc(OC)c(OC)cc2-c2cc(=O)c(C(=O)O)cn21 (stereo not drawn) [Example 70, 6-ethyl-9,10-dimethoxy-2-oxo-6,7-dihydrobenzo[a]quinolizine-3-carboxylic acid]	7.15	–	–
COc1cc2c(cc1OCCCCCCNC(=O)OC(C)(C)C)CC(C(C)(C)C)n1cc(C(=O)O)c(=O)cc1-2 (single isomer, unassigned; (-)) [Example 163, (−)-9-[6-(tert-butoxycarbonylamino)hexoxy]-6-tert-butyl-10-methoxy-2-oxo-6,7-dihydrobenzo[a]quinolizine-3-carboxylic acid]	–	6.46	–
COc1cc2c(cc1OCCCCCCO)CC(C(C)(C)C)n1cc(C(=O)O)c(=O)cc1-2 (stereo not drawn) [Example 155, 6-tert-butyl-9-(6-hydroxyhexoxy)-10-methoxy-2-oxo-6,7-dihydrobenzo[a]quinolizine-3-carboxylic acid]	–	8.70	–
COc1cc2c(cc1OCCCSC)CC(C(C)(C)C)n1cc(C(=O)O)c(=O)cc1-2 (single isomer, unassigned; (+)) [Example 184, (+)-6-tert-butyl-10-methoxy-9-(3-methylsulfanylpropoxy)-2-oxo-6,7-dihydrobenzo[a]quinolizine-3-carboxylic acid]	–	9.00	–
COc1cc2c(cc1OCCCO)CC(C(C)C)n1cc(C(=O)O)c(=O)cc1-2 (stereo not drawn) [Example 147, 9-(3-hydroxypropoxy)-6-isopropyl-10-methoxy-2-oxo-6,7-dihydrobenzo[a]quinolizine-3-carboxylic acid]	7.52	–	–
COCCCOc1cc2c(cc1OC)-c1cc(=O)c(C(=O)O)cn1C(C1CCC1)C2 (stereo not drawn) [Example 197, 6-cyclobutyl-10-methoxy-9-(3-methoxypropoxy)-2-oxo-6,7-dihydrobenzo[a]quinolizine-3-carboxylic acid]	8.52	–	–
COc1cc2c(cc1OCCCCCN)CC(C(C)(C)C)n1cc(C(=O)O)c(=O)cc1-2 (single isomer, unassigned; (+)) [Example 173, (+)-9-(5-aminopentoxy)-6-tert-butyl-10-methoxy-2-oxo-6,7-dihydrobenzo[a]quinolizine-3-carboxylic acid hydrochloride]	–	–	pIC50 (HBsAg secretion reduced by 50% vs no drug control, hydrochloride): 7.68
COc1cc2c(cc1OCCCSC)CC(C(C)(C)C)n1cc(C(=O)O)c(=O)cc1-2 (single isomer, unassigned; (-)) [Example 185, (−)-6-tert-butyl-10-methoxy-9-(3-methylsulfanylpropoxy)-2-oxo-6,7-dihydrobenzo[a]quinolizine-3-carboxylic acid]	–	7.26	–
CC1Cc2cc(N3CCN(C(=O)OC(C)(C)C)CC3)ccc2-c2cc(=O)c(C(=O)O)cn21 (stereo not drawn) [Example 62, 9-(4-tert-butoxycarbonylpiperazin-1-yl)-6-methyl-2-oxo-6,7-dihydrobenzo[a]quinolizine-3-carboxylic acid]	6.00	–	–
